Measured values: the NIST ThermoML archive (doi:10.1021/je700717w)

What was measured:
[1] = xn = mol fraction of the nth substance listed; conditions: 101 kPa, Liquid, Taylor dispersion method, x1 = 0
[2] = 101 kPa, Liquid, Taylor dispersion method

Row | binary diffusion coefficient ([1]; 293.15 K) | binary diffusion coefficient ([1]; 298.15 K) | binary diffusion coefficient ([1]; 303.15 K) | binary diffusion coefficient ([1]; 313.15 K) | binary diffusion coefficient ([1]; 323.15 K) | binary diffusion coefficient ([1]; 333.15 K) | binary diffusion coefficient ([1]; 343.15 K) | binary diffusion coefficient ([1]; 353.15 K) | binary diffusion coefficient ([1]; 363.15 K) | binary diffusion coefficient ([1]; 368.15 K) | self diffusion coefficient ([2]; 293.15 K) | self diffusion coefficient ([2]; 298.15 K) | self diffusion coefficient ([2]; 303.15 K) | self diffusion coefficient ([2]; 313.15 K) | self diffusion coefficient ([2]; 323.15 K) | self diffusion coefficient ([2]; 333.15 K) | self diffusion coefficient ([2]; 343.15 K) | self diffusion coefficient ([2]; 353.15 K) | self diffusion coefficient ([2]; 363.15 K) | self diffusion coefficient ([2]; 368.15 K) | Structure (SMILES)
1 | 1.7e-09 m2/s | 2.05e-09 m2/s | 2.3e-09 m2/s | 2.99e-09 m2/s | 4.02e-09 m2/s | 4.9e-09 m2/s | 5.79e-09 m2/s | 7.09e-09 m2/s | 8.23e-09 m2/s | 8.87e-09 m2/s |  |  |  |  |  |  |  |  |  |  | [N-]=[N+]=O [nitrous oxide] + O
2 |  |  |  |  |  |  |  |  |  |  | 1.7e-09 m2/s | 2.05e-09 m2/s | 2.3e-09 m2/s | 2.99e-09 m2/s | 4.02e-09 m2/s | 4.9e-09 m2/s | 5.79e-09 m2/s | 7.09e-09 m2/s | 8.23e-09 m2/s | 8.87e-09 m2/s | O [water]
